Reference: patent US20070155746A1, “NOVEL SUBSTITUTED PYRIDINYLOXY AND PYRIMIDINYLOXY AMIDES USEFUL AS INHIBITORS OF PROTEIN KINASES” (KALYPSYS, INC., priority 2005, published 2007)

Assays:
Type in all cases: biochemical
[1] = target: T1, human B-Raf protein kinase (Homo sapiens, UniProt P15056); assay: In vitro B-Raf/Mek1 composite kinase assay
T1 construct: GST (N); purchased Upstate Inc. 14-530 (B-Raf); 14-420 (Mek1)
Experimental: In Vitro B-Raf/Mek1 Composite Kinase Assay
2.5 μl of B-Raf kinase buffer (20 mM MOPS [pH 7.2], 25 mM sodium glycerophosphate, 2 mM EGTA [pH 8.0], 1 mM sodium orthovanadate, 1 mM dithiothreitol, 10 mM MgCl2, 0.03% Brij-35, 0.3 mg/ml bovine serum albumin) containing lng of recombinant, N-terminal GST-tagged human B-Raf protein kinase (Δ1-415, Upstate Inc., cat. #14-530) is dispensed to wells of a 1536 multi-well white solid plate. 60 nl of 100× concentration of test compound in DMSO is dispensed to the well by passive pin transfer and incubated for 15 minutes at room temperature (approx. 22° C.). […] The assay plates are sealed and maintained in a humidified environment. After 2 hours, 2.5 μl of PKLight protein kinase assay reagent (Cambrex, cat. #LT07-501) is dispensed. After an additional 5 minute incubation at room temperature, luminescence activity is measured on a Molecular Devices Analyst multi-mode plate reader or other suitable plate reader. Kinase inhibition results in less ATP depletion, and therefore increased luminescence signal. Negative control activity is measured with DMSO lacking any test compound. The positive control is [N-(3-trifluoromethyl-4-chlorophenyl)-N′-(4-(2-methylcarbamoyl-pyridin-4-yl)oxyphenyl)urea], aka Bay 43-9006. Efficacy is measured as a percentage of positive control activity.

VEGFR2 kinase = target: T2, VEGFR2 kinase (Homo sapiens, UniProt P35968); assay: In vitro VEGFR2 kinase assay
T2 construct: purchased Invitrogen Inc PV3660
T2 sequence (P35968 20-1356): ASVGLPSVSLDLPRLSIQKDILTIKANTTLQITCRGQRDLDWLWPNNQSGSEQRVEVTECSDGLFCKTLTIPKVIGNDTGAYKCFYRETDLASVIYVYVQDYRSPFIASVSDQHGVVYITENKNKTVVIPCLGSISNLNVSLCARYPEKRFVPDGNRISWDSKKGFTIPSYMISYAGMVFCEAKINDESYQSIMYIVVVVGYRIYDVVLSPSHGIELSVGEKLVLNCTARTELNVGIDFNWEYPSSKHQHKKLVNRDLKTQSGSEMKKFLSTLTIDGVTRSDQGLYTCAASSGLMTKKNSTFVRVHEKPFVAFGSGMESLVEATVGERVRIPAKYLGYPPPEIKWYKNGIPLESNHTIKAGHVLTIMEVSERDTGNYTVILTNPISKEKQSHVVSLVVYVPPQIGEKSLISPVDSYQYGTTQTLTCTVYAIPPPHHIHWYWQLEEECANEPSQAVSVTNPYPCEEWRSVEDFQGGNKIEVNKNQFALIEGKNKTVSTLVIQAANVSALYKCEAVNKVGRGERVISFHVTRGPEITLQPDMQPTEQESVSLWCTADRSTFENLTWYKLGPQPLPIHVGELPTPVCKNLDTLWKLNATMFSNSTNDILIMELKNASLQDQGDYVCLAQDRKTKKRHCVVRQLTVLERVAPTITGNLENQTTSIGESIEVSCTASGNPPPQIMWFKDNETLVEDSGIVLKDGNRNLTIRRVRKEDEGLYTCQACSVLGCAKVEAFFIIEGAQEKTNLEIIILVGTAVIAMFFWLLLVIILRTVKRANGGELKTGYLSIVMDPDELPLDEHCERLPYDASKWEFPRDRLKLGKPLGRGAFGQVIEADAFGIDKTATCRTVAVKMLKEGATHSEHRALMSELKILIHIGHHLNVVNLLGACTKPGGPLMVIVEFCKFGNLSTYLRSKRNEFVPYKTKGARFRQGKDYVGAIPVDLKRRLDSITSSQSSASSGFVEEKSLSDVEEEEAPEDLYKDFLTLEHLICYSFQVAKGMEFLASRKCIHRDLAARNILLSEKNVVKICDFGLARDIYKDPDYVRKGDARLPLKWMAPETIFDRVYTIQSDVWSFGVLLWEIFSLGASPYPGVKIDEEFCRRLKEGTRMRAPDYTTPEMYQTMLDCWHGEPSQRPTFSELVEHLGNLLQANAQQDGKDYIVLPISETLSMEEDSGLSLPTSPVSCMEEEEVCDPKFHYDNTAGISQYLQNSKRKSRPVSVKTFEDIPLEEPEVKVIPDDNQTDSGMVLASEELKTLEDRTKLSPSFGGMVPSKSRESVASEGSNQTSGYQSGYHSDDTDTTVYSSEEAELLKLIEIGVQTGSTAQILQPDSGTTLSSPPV
Experimental: (§1) In Vitro VEGFR2 and PDGFRP Kinase Assays
(§2) 2.5 μl of ADP Quest assay buffer (DiscoverX Inc., cat. #90-0071) containing 20 ng VEGFR2 kinase (Invitrogen Inc, cat. #PV3660) or 25 ng PDGFRβ kinase (Invitrogen Inc., cat. #P3082) is dispensed to wells of a 1536 multi-well, black solid plate. 60 nl of 100× concentration of test compound in DMSO is dispensed to the well by passive pin transfer and incubated for 10 minutes at room temperature (approx. 22° C.). 2.5 μl of ADP Quest assay buffer containing 0.25 μg of poly Glu:Tyr (4:1) substrate peptide (Upstate Inc., cat. #12-440) and 60 μM ATP is then dispensed and the kinase reaction allowed to incubate at 30° C. for 2 hours. The assay plates are sealed and maintained in a humidified environment. After the 2 hour incubation, 2 μl of ADP Quest assay reagent A, followed by 2 μl of assay reagent B, is added. After an additional 30 minute incubation at room temperature, fluorescence intensity is measured on a Molecular Devices Aquest multi-mode plate reader or other suitable plate reader (fluorescence excitation filter: 530/25 [Peak(nm)/FWHM passband(nm)]; dichroic beamsplitter: 561 nm longpass; fluorescence emission filter: 580/10 [Peak(nm)/FWHM passband(nm)]. The assay measures the conversion of a non-fluoresecent molecule to fluorescent resorufin, which correlates with kinase activity. Negative control activity is measured with DMSO lacking any test compound. The positive control is [N-(3-trifluoromethyl-4-chlorophenyl)-N′-(4-(2-methylcarbamoyl-pyridin-4-yl)oxyphenyl)urea], aka Bay 43-9006. Efficacy is measured as a percentage of positive control activity.

PDGFRβ kinase = target: T3, PDGFRβ kinase (Homo sapiens, UniProt P09619); assay: In vitro PDGFRβ kinase assay
T3 construct: purchased Invitrogen Inc. P3082
T3 sequence (P09619 33-1106): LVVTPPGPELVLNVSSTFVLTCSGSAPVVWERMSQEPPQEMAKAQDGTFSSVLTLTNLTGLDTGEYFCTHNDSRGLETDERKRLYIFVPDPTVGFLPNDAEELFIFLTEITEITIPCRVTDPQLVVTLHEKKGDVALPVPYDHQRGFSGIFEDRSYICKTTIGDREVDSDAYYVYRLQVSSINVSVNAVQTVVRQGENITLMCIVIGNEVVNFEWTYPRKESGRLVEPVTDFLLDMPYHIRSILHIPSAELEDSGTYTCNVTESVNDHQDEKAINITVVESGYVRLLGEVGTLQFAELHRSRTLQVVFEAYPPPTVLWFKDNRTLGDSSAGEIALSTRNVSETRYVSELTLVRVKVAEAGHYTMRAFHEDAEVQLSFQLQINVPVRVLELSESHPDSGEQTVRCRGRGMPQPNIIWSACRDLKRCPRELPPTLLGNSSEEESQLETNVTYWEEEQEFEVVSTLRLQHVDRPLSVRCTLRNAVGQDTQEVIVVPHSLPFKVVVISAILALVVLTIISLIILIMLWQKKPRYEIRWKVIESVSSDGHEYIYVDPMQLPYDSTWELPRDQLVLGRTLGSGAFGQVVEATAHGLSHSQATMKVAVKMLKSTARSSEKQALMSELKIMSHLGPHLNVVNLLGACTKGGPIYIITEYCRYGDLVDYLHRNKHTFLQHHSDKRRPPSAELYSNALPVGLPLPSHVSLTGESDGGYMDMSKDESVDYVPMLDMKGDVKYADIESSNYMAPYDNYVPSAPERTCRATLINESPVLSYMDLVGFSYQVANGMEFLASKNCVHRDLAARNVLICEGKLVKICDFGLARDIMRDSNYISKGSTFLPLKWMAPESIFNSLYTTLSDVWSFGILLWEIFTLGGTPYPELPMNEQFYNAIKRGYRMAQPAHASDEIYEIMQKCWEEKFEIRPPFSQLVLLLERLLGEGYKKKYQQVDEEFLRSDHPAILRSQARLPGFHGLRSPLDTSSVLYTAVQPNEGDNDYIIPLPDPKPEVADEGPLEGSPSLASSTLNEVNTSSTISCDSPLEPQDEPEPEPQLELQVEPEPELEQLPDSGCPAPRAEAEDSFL
Experimental: as §1, §2

T1 sequence (P15056 416-766): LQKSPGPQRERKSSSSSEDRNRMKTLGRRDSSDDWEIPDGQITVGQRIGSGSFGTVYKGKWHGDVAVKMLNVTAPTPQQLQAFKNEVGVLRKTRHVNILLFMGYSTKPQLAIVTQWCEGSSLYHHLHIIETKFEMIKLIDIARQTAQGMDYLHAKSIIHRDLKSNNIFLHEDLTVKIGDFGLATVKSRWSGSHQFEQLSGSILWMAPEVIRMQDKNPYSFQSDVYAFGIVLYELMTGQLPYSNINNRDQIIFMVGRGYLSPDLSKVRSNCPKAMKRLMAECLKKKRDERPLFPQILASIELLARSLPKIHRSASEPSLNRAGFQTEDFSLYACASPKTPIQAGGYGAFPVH

IC50 [1]	IC50 (VEGFR2 kinase)	IC50 (PDGFRβ kinase)	SMILES
> 10 µM	> 10 µM	> 10 µM	CN(C)c1cccc(C(=O)Nc2cccc(Oc3ccnc(-c4cnn(C)c4)c3)c2)c1 [Example 28, 3-(Dimethylamino)-N-(3-(2-(1-methyl-1H-pyrazol-4-yl)pyridin-4-yloxy)phenyl)benzamide]
≤ 10 µM	> 10 µM	> 10 µM	Cn1cc(-c2cc(Oc3cccc(NC(=O)c4cccc5c4OCO5)c3)ccn2)cn1 [Example 29, N-(3-(2-(1-Methyl-1H-pyrazol-4-yl)pyridin-4-yloxy)phenyl)benzo[d][1,3]dioxole-4-carboxamide]
> 10 µM	> 10 µM	> 10 µM	Cn1cc(-c2cc(Oc3cccc(NC(=O)c4cccc5c4OC(F)(F)O5)c3)ccn2)cn1 [Example 30, 2,2-Difluoro-N-(3-(2-(1-methyl-1H-pyrazol-4-yl)pyridin-4-yloxy)phenyl)benzo[d][1,3]dioxole-4-carboxamide]
> 10 µM	> 10 µM	> 10 µM	Cn1cc(-c2cc(Oc3cccc(NC(=O)c4cccc(-c5ccccc5)c4)c3)ccn2)cn1 [Example 31, N-(3-(2-(1-Methyl-1H-pyrazol-4-yl)pyridin-4-yloxy)phenyl)biphenyl-3-carboxamide]
> 10 µM	> 10 µM	> 10 µM	Cn1cc(-c2cc(Oc3cccc(NC(=O)c4cccc(-c5ccccn5)c4)c3)ccn2)cn1 [Example 32, N-(3-(2-(1-Methyl-1H-pyrazol-4-yl)pyridin-4-yloxy)phenyl)-3-(pyridin-2-yl)benzamide]
> 10 µM	≤ 10 µM	> 10 µM	Cn1cc(-c2cc(Oc3cccc(NC(=O)c4cccc(-c5cccnc5)c4)c3)ccn2)cn1 [Example 33, N-(3-(2-(1-Methyl-1H-pyrazol-4-yl)pyridin-4-yloxy)phenyl)-3-(pyridin-3-yl)benzamide]
> 10 µM	> 10 µM	> 10 µM	Cn1cc(-c2cc(Oc3cccc(NC(=O)c4cccc(-c5ccncc5)c4)c3)ccn2)cn1 [Example 34, N-(3-(2-(1-Methyl-1H-pyrazol-4-yl)pyridin-4-yloxy)phenyl)-3-(pyridin-4-yl)benzamide]
> 10 µM	> 10 µM	> 10 µM	Cn1cc(-c2cc(Oc3cccc(NC(=O)c4cncc(-n5cccc5)c4)c3)ccn2)cn1 [Example 35, N-(3-(2-(1-Methyl-1H-pyrazol-4-yl)pyridin-4-yloxy)phenyl)-5-(1H-pyrrol-1-yl)nicotinamide]
> 10 µM	≤ 10 µM	≤ 10 µM	Cn1cc(-c2cc(Oc3cccc(NC(=O)c4ccccc4-n4ccnc4)c3)ccn2)cn1 [Example 36, 2-(1H-Imidazol-1-yl)-N-(3-(2-(1-methyl-1H-pyrazol-4-yl)pyridin-4-yloxy)phenyl) benzamide]
> 10 µM	> 10 µM	> 10 µM	Cn1cc(-c2cc(Oc3cccc(NC(=O)c4cccc(-n5ccnc5)c4)c3)ccn2)cn1 [Example 37, 3-(1H-Imidazol-1-yl)-N-(3-(2-(1-methyl-1H-pyrazol-4-yl)pyridin-4-yloxy)phenyl) benzamide]
≤ 10 µM	≤ 10 µM	> 10 µM	Cn1cc(-c2cc(Oc3cccc(NC(=O)c4cccc(-n5cnnc5)c4)c3)ccn2)cn1 [Example 38, N-(3-(2-(1-Methyl-1H-pyrazol-4-yl)pyridin-4-yloxy)phenyl)-3-(4H-1,2,4-triazol-4-yl)benzamide]
≤ 10 µM	> 10 µM	> 10 µM	Cn1cc(-c2cc(Oc3cccc(NC(=O)c4ccccc4OC(F)(F)F)c3)ccn2)cn1 [Example 39, N-(3-(2-(1-Methyl-1H-pyrazol-4-yl)pyridin-4-yloxy)phenyl)-2-(trifluoromethoxy)benzamide]
> 10 µM	> 10 µM	> 10 µM	Cn1cc(-c2cc(Oc3cccc(NC(=O)c4cccc(OC(F)(F)F)c4)c3)ccn2)cn1 [Example 40, N-(3-(2-(1-Methyl-1H-pyrazol-4-yl)pyridin-4-yloxy)phenyl)-3-(trifluoromethoxy)benzamide]
> 10 µM	> 10 µM	> 10 µM	Cn1cc(-c2cc(Oc3cccc(NC(=O)c4cc(OC(F)(F)F)cc(OC(F)(F)F)c4)c3)ccn2)cn1 [Example 41, N-(3-(2-(1-methyl-1H-pyrazol-4-yl)pyridin-4-yloxy)phenyl)-3,5-bis(trifluoromethoxy)benzamide]
≤ 10 µM	≤ 10 µM	> 10 µM	Cn1cc(-c2cc(Oc3cccc(NC(=O)c4ccc(OC(F)(F)F)cc4OC(F)(F)F)c3)ccn2)cn1 [Example 42, N-(3-(2-(1-Methyl-1H-pyrazol-4-yl)pyridin-4-yloxy)phenyl)-2,4-bis(trifluoromethoxy)benzamide]
≤ 10 µM	≤ 10 µM	≤ 10 µM	Cn1cc(-c2cc(Oc3cccc(NC(=O)c4ccccc4C(F)(F)F)c3)ccn2)cn1 [Example 43, N-(3-(2-(1-Methyl-1H-pyrazol-4-yl)pyridin-4-yloxy)phenyl)-2-(trifluoromethyl)benzamide]
> 10 µM	> 10 µM	> 10 µM	Cn1cc(-c2cc(Oc3cccc(NC(=O)c4cccc(C(F)(F)F)c4)c3)ccn2)cn1 [Example 44, N-(3-(2-(1-Methyl-1H-pyrazol-4-yl)pyridin-4-yloxy)phenyl)-3-(trifluoromethyl)benzamide]
≤ 10 µM	> 10 µM	> 10 µM	Cn1cc(-c2cc(Oc3cccc(NC(=O)c4ccc(C(F)(F)F)cc4)c3)ccn2)cn1 [Example 45, N-(3-(2-(1-Methyl-1H-pyrazol-4-yl)pyridin-4-yloxy)phenyl)-4-(trifluoromethyl)benzamide]
≤ 10 µM	> 10 µM	> 10 µM	Cn1cc(-c2cc(Oc3cccc(NC(=O)c4cccc(C#N)c4)c3)ccn2)cn1 [Example 46, 3-Cyano-N-(3-(2-(1-methyl-1H-pyrazol-4-yl)pyridin-4-yloxy)phenyl)benzamide]
≤ 10 µM	> 10 µM	> 10 µM	Cn1cc(-c2cc(Oc3cccc(NC(=O)c4ccc(C#N)cc4)c3)ccn2)cn1 [Example 47, 4-Cyano-N-(3-(2-(1-methyl-1H-pyrazol-4-yl)pyridin-4-yloxy)phenyl)benzamide]
> 10 µM	≤ 10 µM	≤ 10 µM	Cn1cc(-c2cc(Oc3cccc(NC(=O)c4ccccc4C(=O)c4ccccc4)c3)ccn2)cn1 [Example 49, 2-Benzoyl-N-(3-(2-(1-methyl-1H-pyrazol-4-yl)pyridin-4-yloxy)phenyl)benzamide]
> 10 µM	≤ 10 µM	> 10 µM	Cn1cc(-c2cc(Oc3cccc(NC(=O)c4cccc(C(=O)c5ccccc5)c4)c3)ccn2)cn1 [Example 50, 3-Benzoyl-N-(3-(2-(1-methyl-1H-pyrazol-4-yl)pyridin-4-yloxy)phenyl)benzamide]
≤ 10 µM	≤ 10 µM	> 10 µM	Cn1cc(-c2cc(Oc3cccc(NC(=O)c4ccc(C(=O)c5ccccc5)cc4)c3)ccn2)cn1 [Example 51, 4-Benzoyl-N-(3-(2-(1-methyl-1H-pyrazol-4-yl)pyridin-4-yloxy)phenyl)benzamide]
> 10 µM	> 10 µM	> 10 µM	Cn1cc(-c2cc(Oc3cccc(NC(=O)c4cccc5ccccc45)c3)ccn2)cn1 [Example 52, N-(3-(2-(1-Methyl-1H-pyrazol-4-yl)pyridin-4-yloxy)phenyl)-1-naphthamide]
> 10 µM	> 10 µM	> 10 µM	Cn1cc(-c2cc(Oc3cccc(NC(=O)c4ccc5ccccc5c4)c3)ccn2)cn1 [Example 53, N-(3-(2-(1-Methyl-1H-pyrazol-4-yl)pyridin-4-yloxy)phenyl)-2-naphthamide]
